Source: patent publication US7491794B2, “Macrocyclic compounds as inhibitors of viral replication” (Intermune, Inc., priority 2003, dated 2009)

Key:
[1] = from 1R-{[1-(2S-tert-Butoxycarbonylamino-non-8-enoyl)-4R-hydroxy-pyrrolidine-2S-carbonyl]-amino}-2S-vinyl-cyclopropanecarboxylic acid ethyl ester; rcm bond; 15-membered ring; Hoveyda catalyst (0.25 equiv); DCE; 10.0 mM; 50.0 °C
[2] = from C=CCCCCC[C@H](NC(=O)OC(C)(C)C)C(=O)N1C[C@H](O)C[C@H]1C(=O)N[C@]1(C(=O)OCC)C[C@H]1C=C; rcm bond; Hoveyda catalyst; DCE; 10.0 mM; 50.0 °C; 16.0 h
[3] = target: hERG channel (Homo sapiens, UniProt Q12809); test: Inhibition of hERG channel activity; settings: highest concentrations tested (10 μM)
Sequence of hERG channel (Q12809 whole entry, canonical isoform): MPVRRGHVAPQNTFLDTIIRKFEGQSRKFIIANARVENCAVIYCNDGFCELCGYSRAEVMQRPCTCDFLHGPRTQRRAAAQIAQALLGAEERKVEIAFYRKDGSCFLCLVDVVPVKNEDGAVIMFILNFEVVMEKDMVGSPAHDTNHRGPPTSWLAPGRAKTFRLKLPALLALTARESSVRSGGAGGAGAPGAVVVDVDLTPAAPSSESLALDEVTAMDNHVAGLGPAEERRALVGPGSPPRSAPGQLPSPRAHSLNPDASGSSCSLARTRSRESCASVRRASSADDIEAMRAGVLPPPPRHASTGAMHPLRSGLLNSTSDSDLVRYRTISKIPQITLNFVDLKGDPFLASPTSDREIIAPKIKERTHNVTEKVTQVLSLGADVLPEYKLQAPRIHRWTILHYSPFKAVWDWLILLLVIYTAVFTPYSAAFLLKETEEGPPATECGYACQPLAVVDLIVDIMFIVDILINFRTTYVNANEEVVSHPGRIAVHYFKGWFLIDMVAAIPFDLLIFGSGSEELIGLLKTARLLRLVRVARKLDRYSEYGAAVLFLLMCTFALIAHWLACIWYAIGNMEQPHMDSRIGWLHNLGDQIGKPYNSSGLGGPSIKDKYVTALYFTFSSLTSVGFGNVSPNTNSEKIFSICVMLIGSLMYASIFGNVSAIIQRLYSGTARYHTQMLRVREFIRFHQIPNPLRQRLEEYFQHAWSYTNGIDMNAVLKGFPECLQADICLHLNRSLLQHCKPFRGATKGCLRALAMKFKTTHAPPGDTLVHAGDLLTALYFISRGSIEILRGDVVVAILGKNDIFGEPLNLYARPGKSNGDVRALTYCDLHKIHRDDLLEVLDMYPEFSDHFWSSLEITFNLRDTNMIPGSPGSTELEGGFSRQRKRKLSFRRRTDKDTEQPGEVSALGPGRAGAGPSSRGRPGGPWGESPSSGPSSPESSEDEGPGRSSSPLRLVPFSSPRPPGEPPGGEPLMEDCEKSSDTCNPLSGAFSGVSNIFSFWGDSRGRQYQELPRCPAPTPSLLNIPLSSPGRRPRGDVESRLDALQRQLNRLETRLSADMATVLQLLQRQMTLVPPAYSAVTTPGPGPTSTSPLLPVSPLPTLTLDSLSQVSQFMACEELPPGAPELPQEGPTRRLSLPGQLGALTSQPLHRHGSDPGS

[4] = test system: Cytochrome P450 isoforms; test: Inhibition of Cytochrome P450 isoforms; type: in vitro ADME; settings: highest concentrations tested (10 μM)
[5] = test system: HCV sub-genomic replicon, GS4.3; test: Quantitation by ELISA of NPTII in the HCV sub-genomic replicon, GS4.3, Section B; type: cell-based; settings: Hepatitis C virus; read-out: replicon EC50 value
In short: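 GS4.3 cells (HuH-7 carrying HCV 1377/NS3-3′ replicon) were treated 72 h at 37 °C with inhibitors in 3-fold dilutions, 1% DMSO, no G418. Lysate NPTII was measured by ELISA (TMB, 450 nm). Signal as % of DMSO control; EC50 from 4-parameter fit.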

[6] = Human hepatocyte incubation assay (stability in vitro); type: in vitro ADME; settings: human hepatocytes
[7] = Dog hepatocyte incubation assay (stability in vitro); type: in vitro ADME; settings: dog hepatocytes
[8] = test system: panel of other serine proteases; test: Selectivity against a panel of other serine proteases; type: biochemical
[9] = Rat hepatocyte incubation assay (stability in vitro); type: in vitro ADME; settings: rat hepatocytes
[10] = Toxicological assessment in rats, up to 30 mg/kg orally BID for seven days; settings: Rattus sp.
[11] = in vivo, po
Method: (§1) Compounds were initially synthesized and tested for potency (IC50) in a fluorogenic NS3/4 protease assay and cell-based HCV replicon system as described in Example 8 above. […] These leads were then further optimized for drug-like physical properties and administered in oral doses in Rattus sp. to assess liver, heart and plasma concentrations.
Compounds were tested for liver clearance over time following a single 3 mg/kg oral dose in rats.
as §1, with “described” for “described in Example 8”

CCOC(=O)[C@@]12C[C@H]1C=CCCCCC[C@H](NC(=O)OC(C)(C)C)C(=O)N1C[C@H](O)C[C@H]1C(=O)N2
ring closure, isolated yield [1]: 52%
ring closure, yield of all isomers [2]: 26%

CC(C)(C)OC(=O)N[C@H]1CCCCCCC[C@@H]2C[C@@]2(C(=O)NS(=O)(=O)C2CC2)NC(=O)[C@@H]2C[C@@H](OC(=O)N3Cc4ccccc4C3)CN2C1=O [AR333833]
inhibition of hERG channel activity [3]: no significant inhibition
inhibition of Cytochrome P450 isoforms [4]: no significant inhibition
EC50 [5]: ~2 nM
stability in vitro in human hepatocyte incubation assay [6]: exhibited stability
stability in vitro in dog hepatocyte incubation assay [7]: exhibited stability
selectivity against a panel of other serine proteases [8]: high degree of selectivity
stability in vitro in rat hepatocyte incubation assay [9]: exhibited stability

CC(C)(C)OC(=O)N[C@H]1CCCCC/C=C\[C@@H]2C[C@@]2(C(=O)NS(=O)(=O)C2CC2)NC(=O)[C@@H]2C[C@@H](OC(=O)N3Cc4cccc(F)c4C3)CN2C1=O [AR334191]
safety margin above the presumptive efficacious dose (3 mg/kg) ([10]; 30 mg/kg BID for seven days vs 3 mg/kg): ≥ 10 fold
mortality, change in weight, abnormalities in clinical chemistries ([10]; 30 mg/kg orally BID for 7 days): no mortality, change in weight, or abnormalities in clinical chemistries were observed
toxicity ([10]; dosed for seven days at 30 mg/kg BID): did not display toxicity
inhibition of hERG channel activity [3]: no significant inhibition
inhibition of Cytochrome P450 isoforms [4]: no significant inhibition
EC50 [5]: ~2 nM
stability in vitro in human hepatocyte incubation assay [6]: exhibited stability
stability in vitro in dog hepatocyte incubation assay [7]: exhibited stability
selectivity against a panel of other serine proteases [8]: high degree of selectivity
stability in vitro in rat hepatocyte incubation assay [9]: exhibited stability
heart levels relative to liver concentrations in the same animals [11]: up to two orders of magnitude lower
plasma levels relative to liver concentrations in the same animals [11]: up to two orders of magnitude lower

CC(C)(C)OC(=O)N[C@H]1CCCCC/C=C\[C@@H]2C[C@@]2(C(=O)NS(=O)(=O)C2CC2)NC(=O)[C@@H]2C[C@@H](OC(=O)N3Cc4ccccc4C3)CN2C1=O [AR294381]
inhibition of hERG channel activity [3]: no significant inhibition
inhibition of Cytochrome P450 isoforms [4]: no significant inhibition
EC50 [5]: ~2 nM
stability in vitro in human hepatocyte incubation assay [6]: exhibited stability
stability in vitro in dog hepatocyte incubation assay [7]: exhibited stability
selectivity against a panel of other serine proteases [8]: high degree of selectivity
stability in vitro in rat hepatocyte incubation assay [9]: exhibited stability

CC(C)(C)OC(=O)N[C@H]1CCCCC/C=C\[C@@H]2C[C@@]2(C(=O)NS(=O)(=O)C2CC2)NC(=O)[C@@H]2C[C@@H](OC(=O)N3CCc4ccccc4C3)CN2C1=O [AR261408]
inhibition of hERG channel activity [3]: no significant inhibition
inhibition of Cytochrome P450 isoforms [4]: no significant inhibition
EC50 [5]: ~2 nM
stability in vitro in human hepatocyte incubation assay [6]: exhibited stability
stability in vitro in dog hepatocyte incubation assay [7]: exhibited stability
selectivity against a panel of other serine proteases [8]: high degree of selectivity
stability in vitro in rat hepatocyte incubation assay [9]: exhibited stability
